Legend:
[1] = target: T1, Avi-KRAS G12V (1-169) GppNHp/RAF1 RBD-3xFLAG (52-151) (Homo sapiens, UniProt P01116, G12V); assay: Raf1-KRAS G12V-GppNHP disruption HTRF assay (Biological Example 1); format: binding
T1 construct: Avi-KRAS G12V (1-169)
Procedure, shortened: (§1)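 HTRF PPI disruption; buffer 50 mM Tris pH 7.5, 100 mM NaCl, 5 mM MgCl2, 0.1% BSA, 0.01% Tween, 10% DMSO. Protein mix 1 h RT shaking, reagent mix 1 h RT shaking. Data as % activity vs DMSO (100%).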

SW620 cells (KRAS G12V) = assay: Cell-based pERK HTRF assay in SW620 cell (Biological Example 4); conditions: pERK HTRF
Procedure, shortened: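 In SW620 cells grown in RPMI with 10% FBS, a 4 h compound treatment (0.25% DMSO, 9-point curve from 1 μM) preceded lysis. Phospho-ERK levels were then read by time-resolved FRET at 615 nm emission.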

[2] = target: T2, Avi-KRAS WT (1-169) GppNHp/RAF1 RBD-3xFLAG (52-151) (Homo sapiens, UniProt P01116); assay: Raf1-KRAS WT-GppNHP disruption HTRF assay (Biological Example 1); format: binding
T2 construct: Avi-KRAS WT (1-169)
Procedure, shortened: as §1

[3] = Homo sapiens, SW-620, SW620 (KRAS G12V) cells
[4] = KRAS G12V, GppNHp-loaded, Table 11
[5] = KRAS WT, GppNHp-loaded, Table 11
[6] = KRAS G12V, GppNHp-loaded, class symbols
[7] = Homo sapiens, SW-620, SW620 (KRAS G12V) cells, class symbols
[8] = KRAS WT, GppNHp-loaded, class symbols

T1 sequence (P01116 1-169 isoform P01116-2 G12V): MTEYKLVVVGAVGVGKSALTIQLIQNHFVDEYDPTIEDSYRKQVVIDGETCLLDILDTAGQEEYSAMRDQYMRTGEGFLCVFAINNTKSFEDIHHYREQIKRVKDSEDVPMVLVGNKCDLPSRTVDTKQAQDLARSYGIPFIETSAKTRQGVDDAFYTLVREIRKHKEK
T2 sequence (P01116 1-169 isoform P01116-2): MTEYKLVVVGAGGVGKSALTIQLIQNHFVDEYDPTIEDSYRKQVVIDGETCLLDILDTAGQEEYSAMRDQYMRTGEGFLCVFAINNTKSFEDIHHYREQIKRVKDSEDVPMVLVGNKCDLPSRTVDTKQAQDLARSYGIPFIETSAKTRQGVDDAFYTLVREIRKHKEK

| Compound | IC50 ([1]; KRAS G12V-GppNHp/RAF1 RBD HTRF) [nM] | IC50 (SW620 cells (KRAS G12V); [3]) [nM] | IC50 ([2]; KRAS WT-GppNHp/RAF1 RBD HTRF) [nM] | other results |
| --- | --- | --- | --- | --- |
| CCC(=O)N1C[C@@H](N(CC)c2nc(OC[C@@]34CCCN3C[C@H](F)C4)nc3c(F)c(-c4ccc(F)c5sc(N)c(C#N)c45)c(C(F)(F)F)cc23)C[C@H]1C [Compound 442] | 100 to 1000 | < 100 | 100 to 1000 | – |
| N#Cc1c(N)sc2c(F)ccc(-c3c(C(F)(F)F)cc4c(N5CC6CC5CO6)nc(OC[C@@]56CCCN5C[C@H](F)C6)nc4c3F)c12 (stereo partly drawn) [Compound 147] | – | < 100 | – | IC50 [1, 4]: 100 to 1000 nM; IC50 [2, 5]: 100 to 1000 nM |
| CCC(=O)N1CC[C@@H](N(C)c2nc(OC[C@@]34CCCN3C[C@H](F)C4)nc3c(F)c(-c4ccc(F)c5sc(N)c(C#N)c45)c(C(F)(F)F)cc23)[C@H]1C [Compound 260] | – | < 100 | – | IC50 [1, 4]: 100 to 1000 nM; IC50 [2, 5]: < 100 nM |
| CCN(c1nc(OC[C@@]23CCCN2C[C@H](F)C3)nc2c(F)c(-c3ccc(F)c4sc(N)c(C#N)c34)c(C(F)(F)F)cc12)[C@H]1C[C@H](C)N(C(=O)[C@@H]2CC2(F)F)C1 (atropisomer, axis not shown) [Compound 751] | – | – | – | IC50 [1, 6]: < 100 nM; IC50 (SW620 cells (KRAS G12V); [7]): < 100 nM; IC50 [2, 8]: 100 to 1000 nM |
| CN(Cc1cccnc1N)c1nc(OC[C@@]23CCCN2C[C@H](F)C3)nc2c(F)c(-c3ccc(F)c4sc(N)c(C#N)c34)c(C(F)(F)F)cc12 [Compound 390] | < 100 | < 100 | 100 to 1000 | – |
| CCN(c1nc(OC[C@@]23CCCN2C[C@H](F)C3)nc2c(F)c(-c3ccc(F)c4sc(N)c(C#N)c34)c(Cl)cc12)[C@@H]1CCN(C(=O)C2CC2)[C@@H]1C [Compound 337] | 100 to 1000 | < 100 | 100 to 1000 | – |
| CCN(c1nc(OCC23CCCN2CC(F)C3)nc2c(F)c(-c3ccc(F)c4sc(N)c(C#N)c34)c(C(F)(F)F)cc12)C1CC(C)N(C(=O)N2CC(F)C2)C1 (stereo not drawn) [Compound 759] | – | – | – | IC50 [1, 6]: < 100 nM; IC50 (SW620 cells (KRAS G12V); SW620 (KRAS G12V) cells, class symbols): < 100 nM; IC50 [2, 8]: < 100 nM |
| CCN(c1nc(OC[C@@]23CCCN2C[C@H](F)C3)nc2c(F)c(-c3ccc(F)c4sc(N)c(C#N)c34)c(C(F)(F)F)cc12)[C@H]1CCN(C(=O)c2ncco2)C1 (atropisomer, axis not shown) [Compound 584] | – | – | – | IC50 [1, 6]: < 100 nM; IC50 (SW620 cells (KRAS G12V); [7]): < 100 nM; IC50 [2, 8]: < 100 nM |
| CCN(c1nc(OC[C@@]23CCCN2C[C@H](F)C3)nc2c(F)c(-c3ccc(F)c4sc(N)c(C#N)c34)c(Cl)cc12)[C@@H]1CCN(C(C)=O)[C@@H]1C [Compound 323] | 100 to 1000 | < 100 | 100 to 1000 | – |

More lines, main results first:

| IC50 ([1]; KRAS G12V-GppNHp/RAF1 RBD HTRF) [nM] | IC50 (SW620 cells (KRAS G12V); [3]) [nM] | IC50 ([2]; KRAS WT-GppNHp/RAF1 RBD HTRF) [nM] | Compound | other results |
| --- | --- | --- | --- | --- |
| 100 to 1000 | < 100 | 100 to 1000 | C[C@@H]1[C@H](N(C)c2nc(OC[C@@]34CCCN3C[C@H](F)C4)nc3c(F)c(-c4ccc(F)c5sc(N)c(C#N)c45)c(C(F)(F)F)cc23)CC(=O)N1C [Compound 440] | – |
| – | < 100 | – | N#Cc1c(N)sc2c(F)ccc(-c3c(C(F)(F)F)cc4c(N5CCC[C@@H](O)C5)nc(OC[C@@]56CCCN5C[C@H](F)C6)nc4c3F)c12 [Compound 234] | IC50 [1, 4]: 100 to 1000 nM; IC50 [2, 5]: 100 to 1000 nM |
| 100 to 1000 | < 100 | 100 to 1000 | CC(=O)N1CC[C@@H](N(C)c2nc(OC[C@@]34CCCN3C[C@H](F)C4)nc3c(F)c(-c4ccc(F)c5sc(N)c(C#N)c45)c(Cl)cc23)[C@H]1C [Compound 398] | – |
| – | < 100 | – | C[C@@H]1[C@H](N(C)c2nc(OC[C@@]34CCCN3C[C@H](F)C4)nc3c(F)c(-c4ccc(F)c5sc(N)c(C#N)c45)c(C(F)(F)F)cc23)CCN1C(=O)C1CC1 [Compound 258] | IC50 [1, 4]: 100 to 1000 nM; IC50 [2, 5]: < 100 nM |
| 100 to 1000 | < 100 | 100 to 1000 | N#Cc1cnn2c1CN(c1nc(OC[C@@]34CCCN3C[C@H](F)C4)nc3c(F)c(-c4ccc(F)c5sc(N)c(C#N)c45)c(C(F)(F)F)cc13)CC2 [Compound 392] | – |
| < 100 | < 100 | < 100 | CCN(c1nc(OC[C@@]23CCCN2C[C@H](F)C3)nc2c(F)c(-c3ccc(F)c4sc(N)c(C#N)c34)c(C(F)(F)F)cc12)[C@H]1C[C@H](C)N(C(C)=O)C1 [Compound 463] | – |
